Results from patent US20160175225A1, “Peptides and Their Use in the Treatment of Skin” (AVON PRODUCTS, INC., priority 2014, published 2016).

Key:
[1] = test system: Human dermal fibroblast cells; assay: Pro-collagen I secretion by human dermal fibroblasts (HTRF human pro-collagen I kit); assay type: cell-based; settings: percent change relative to vehicle control, 48 h
Method: (§1) Human dermal fibroblast cells were grown in a 96 well plate in DMEM media (available from Corning, N.Y.) supplemented with 10% Fetal Bovine Serum (FBS) and L-glutamine (0.07×10^5 cells/plate). After reaching about 75% confluence, cells were transferred into DMEM media without FBS and incubated for 4-6 hours. Next, cells were treated with a peptide at 0.00001%, 0.0001%, 0.001% final concentration in DMEM media without FBS for 48 h. After treatment the media were collected, and cell viability was measured using MTT. Amount of collagen secreted was tested in the media using HTRF human pro-collagen I kit (available from Cisbio Inc., Bedford, Mass.). Amount of secreted Hyaluronic Acid (HA) was tested in the media using HA Elisa kit (available from Corgenix, Broomfield, Colo.).
(§2) Results are summarized in Table 5 below as percent change of pro-collagen I and/or HA production relative to vehicle control using the following keys with the peptide concentration provided in parentheses: […]

[2] = test system: Human dermal fibroblast cells; assay: Hyaluronic acid (HA) secretion by human dermal fibroblasts (HA Elisa kit); assay type: cell-based; settings: percent change relative to vehicle control, 48 h
Method: as §1, §2

[3] = concentration not given (tested at 0.00001%, 0.0001%, 0.001%)

Substance | Increase in HA Production [2, 3] | Increase in HA Production ([2]; peptide concentration 0.001%) | Increase in Pro-Collagen I Production [1, 3] | further results
QILSKLRL [Gln-Ile-Leu-Ser-Lys-Leu-Arg-Leu, peptide derived from GDF11 and TGFβ] | 0 (0: <20%) | – | – | Increase in Pro-Collagen I Production ([1]; peptide concentration 0.001%): + (0.001%) (+: 10-30%)
TAKDGAP [Thr-Ala-Lys-Asp-Gly-Ala-Pro, peptide derived from CTGF] | – | ++ (0.001%) (++:50-90%) | – | Increase in Pro-Collagen I Production ([1]; peptide concentration 0.00001%): + (0.00001%) (+: 10-30%)
Met-Val-Val (MVV) [peptide derived from GDF11] | – | – | 0 (0: <10%) | Increase in HA Production ([2]; peptide concentration 0.0001%): + (0.0001%) (+: 20-50%)
LENTKRS | 0 (0: <20%) | – | 0 (0: <10%) | –
NRNV: peptide sequence NRNV, origin PDGF, tested in Table 5 | 0 (0: <20%) | – | 0 (0: <10%) | –
GDALQPE | 0 (0: <20%) | – | 0 (0: <10%) | –
Ala-Glu-Cys-Lys (AECK) [peptide derived from PDGF] | – | +++ (0.001%) (+++:90-150%) | 0 (0: <10%) | –
IFGGTVYRS [Ile-Phe-Gly-Gly-Thr-Val-Tyr-Arg-Ser, peptide derived from CTGF] | – | ++ (0.001%) (++:50-90%) | – | Increase in Pro-Collagen I Production ([1]; peptide concentration 0.001%): + (0.001%) (+: 10-30%)
QPED: peptide sequence QPED, origin GDF11, tested in Table 5 | 0 (0: <20%) | – | 0 (0: <10%) | –
RKIE: peptide sequence RKIE, origin PDGF, tested in Table 5 | 0 (0: <20%) | – | 0 (0: <10%) | –
Leu-Arg-Leu-Lys (LRLK) [peptide derived from GDF11 and TGFβ] | – | + (0.001%) (+: 20-50%) | 0 (0: <10%) | –
RTPKISKPIKFELSG [Arg-Thr-Pro-Lys-Ile-Ser-Lys-Pro-Ile-Lys-Phe-Glu-Leu-Ser-Gly, peptide derived from CTGF] | – | + (0.001%) (+: 20-50%) | 0 (0: <10%) | –
EASAEPE | 0 (0: <20%) | – | 0 (0: <10%) | –
